Series [1] has as its system HepG2 cells. Briefly: Seahorse mitochondrial respiration (oxygen consumption rate), HepG2. Format: cell-based. Conditions: HepG2, pretreated 2 hours before 1 Gy 230 MeV proton. The protocol: The oxygen consumption rates were assessed in N2A, HUVEC, NIH3T3, and HepG2 cell lines with a Seahorse XFe96 (Agilent Technologies, Santa Clara, CA, USA). Cells were treated with 0 and 1 Gy of 230 MeV proton irradiation. The control plates were run at about the same time post plating. Each cell line was optimized prior to these experiments, and data was presented normalized to cell number plated. The standard mitochondrial stress test was performed using serial injections of oligomycin (1.5 μM), carbonyl cyanide p-(trifluoromethoxy)phenylhydrazone (FCCP, 1 μM), and rotenone/antimycin A mixture (0.5 μM). After injection of oligomycin, which inhibits ATP synthase (complex V), there was a drop in electron flow through the electron transport chain (ETC) and a resultant drop in oxygen consumption rate (OCR) of the cells. Injection of FCCP collapsed the proton gradient and allowed for uninhibited electron flow through the ETC supercomplexes. […] The reserve respiratory capacity was calculated by subtracting the basal respiratory capacity from the maximal respiratory capacity.

For a further series, the system named is N2A cells. Kind of series: DNA damage, γH2AX foci immunofluorescence, N2A. Format: cell-based. How it is done: (§1) To test the ability of C60-ser to protect against radiation injury, the level of DNA damage in response to radiation was analyzed by measuring γH2AX. The H2AX protein becomes phosphorylated into γH2AX as a result of DNA double strand breaks. This allows for the visualization and quantification of double strand break foci through immunofluorescence analysis. Cells were plated on 8 chamber slides and incubated overnight before C60-ser treatment. Three sets of slides per cell line (to be irradiated with 0, 0.5, and 1 Gy) were prepared, with the top 4 rows used as a control and the bottom 4 rows incubated with 100 μM C60-ser. Cells were incubated with C60-ser for 2 hours before irradiation with a clinical Proteus One proton machine (Ion Beam Applications, Louvain-la-Neuve, Belgium). A 230 MeV mono-energetic unmodulated broad beam of large field size that encompassed all slides containing the cells was used to deliver the 0.5 and 1 Gy doses. White solid water slabs (IBA Dosimetry, Germany) provided the necessary phantom material to place the cells at the desired 8 cm depth with an LET of approximately 1.7 keV/μm. After irradiation, cells were incubated at 37° C. with 5% CO2 for 30 minutes before washing and fixing the cells with 1% formaldehyde. The cells were permeabilized with 1% NP-40 and incubated with 5% BSA to block unspecific antibody bonding. The cells were then incubated with γH2AX primary antibody followed by a secondary antibody. Mounting media containing DAPI was used before applying cover slips and sealing the samples. Cells were imaged on an Olympus IX71 trinocular inverted fluorescence phase contrast microscope with a 40× objective. The resulting images were analyzed by ImageJ, and the foci were counted.

Series [2] has as its system Panc02 tumor on the thigh of C57B16 mice. Kind of series: Syngeneic mouse model of pancreatic cancer, tumor volume under radiation. Type of series: in vivo. As to conditions: 700 mg/kg per os once 12 hours before first radiation, with capecitabine 350 mg/kg 5 days, 2 Gy x 5 days, 20 days. The protocol:
A syngeneic mouse model of pancreatic cancer (Panc02 growing on the thigh of C57B16 mice) was used to evaluate the effects of C60-ser on in vivo tumors. Mice were treated with 350 mg/kg capecitabine via per os gavage for 5 days 1 hour before radiation (RT+Cape), or capecitabine treatment with a single dose of 700 mg/kg C60-ser via per os gavage once 12 hours before the first dose of radiation (RT+Cape+c60 Ser). Mice were exposed to 2 Gy of radiation (RT) once per day for 5 days. A control group (Cont) without treatment also was exposure to the radiation treatment. Normalized tumor volumes were monitored for 20 days.

A short description of series [3]: Dynamic light scattering analysis of C60-ser aggregates. Format: physicochemical. As to conditions: for Predominant aggregate sizes: in PBS. The protocol: Dynamic light scattering (DLS) was used to observe the aggregation process of C60-ser. Dynamic light scattering heatmaps were created by combining multiple normalized particle number weighted distribution (PNWD) plots. The PNWD plots compared the log of the relative scattering intensity versus particle size, at angles of 173°. The refractive index was assumed to be n=1.34, the absorption constant to be k=0.001, and the solution viscosity to be that of water, corrected for temperature (η=0.888 mPa s). Plots were collected with a 0.2° C. interval. Each temperature interval was held constant for more than 45 minutes before performing the next measurement, to ensure the presence of an aggregation equilibrium.

Series [4] relates to HepG2 cells. Kind of series: Classic clonogenics survival assay of irradiated cells, HepG2. Type of series: cell-based. The protocol:
A classic clonogenics assay was performed to further test the ability of C60-ser to protect against radiation damage. After irradiation, a fraction of the cells will undergo radiation-induced death, whereas other cells remain metabolically active and are able to undergo a few cycles of mitosis before meeting their endpoint. Since many cells remain metabolically activity, classic toxicity measurements such as an MTT measurement are not able to catch the full effects of radiation damage. In contrast, a classic clonogenics assay, which plates a known number of cells and tracks development of colonies, is able to track the number of cells that maintain their clonogenicity. With increasing radiation doses, the fraction of cells that maintain clonogenicity decrease. Therefore, a successful radioprotectant is able to increase the number of surviving colonies compared to the control at the same radiation doses.
N2A, NIH3T3, and HepG2 cells were plated in 35 mm dishes and treated with 100 μM C60-ser for 2 hours prior to washing with PBS and irradiation at 0, 2, 4, and 6 Gy with a 230 MeV proton beam. Following radiation, a known number of cells were re-plated in six well plates and allowed to grow in culture for 8-14 days to allow for colony formation. To account for cell death with higher radiation doses, a larger number of cells were plated with increasing doses received. […]

In a further series the test system is NIH3T3 cells. Kind of series: DNA damage, γH2AX foci immunofluorescence, NIH3T3. Format: cell-based. How it is done: as §1

With `O=C(NC(CO)CO)C1(C(=O)NC(CO)CO)C23c4c5c6c7c8c4-c4c2c2c9c%10c4C4%11c%12c-%10c%10c%13c%14c%12-c%12c(c-7c7c%15c%12C%14%12C(C(=O)NC(CO)CO)(C(=O)NC(CO)CO)C%12%14c%12c%16c%17c%18c(c%12-%15)C7%12C(C(=O)NC(CO)CO)(C(=O)NC(CO)CO)C6%12c6c-5c5c7c(c6-%18)C%176C(C(=O)NC(CO)CO)(C(=O)NC(CO)CO)C6%12c6c-7c(c-2c2c6-c6c%12c-%16c%14c-%13c6C%106C(C(=O)NC(CO)CO)(C(=O)NC(CO)CO)C926)C513)C84C%11(C(=O)NC(CO)CO)C(=O)NC(CO)CO` (stereo not shown) [C60-ser, C60-serinol], in the series with HepG2 cells [1], the “radiation-induced increase in respiratory capacity” value is “dampened and, in some cases, reduced to normal or slightly below normal levels”. The “γH2AX foci vs control” value with N2A cells (100 μM 2 hours before 0.5 Gy proton radiation) is “trend towards reduction in total foci formed, but it was not statistically significant”; in the series on N2A cells (100 μM 2 hours before 1 Gy proton radiation), “significant decrease in the number of foci”; in the series on N2A cells (100 μM 2 hours, absence of radiation), “no significant different in foci expression”; in the series with NIH3T3 cells (NIH3T3, 100 μM 2 hours before 0.5 Gy proton radiation), “trend towards reduction in total foci formed, but it was not statistically significant”; with NIH3T3 cells (NIH3T3, 100 μM 2 hours before 1 Gy proton radiation), “significant decrease in the number of foci”; in the series on NIH3T3 cells (NIH3T3, 100 μM 2 hours, absence of radiation), “no significant different in foci expression”. Further, the “normalized tumor volume vs capecitabine alone” value in series [2] is on record as “not significantly different in normalized tumor volume”. Moreover, the Predominant aggregate sizes in series [3] (0.1 mg/mL, 37 ° C.) worked out at 260 ± 38 nm; in series [3] (10 mg/mL, 4 ° C.), 290 ± 73 nm; in series [3] (10 mg/mL, 37 ° C.), 233 ± 56 nm. In addition, the size of aggregates in series [3] (dynamic equilibrium in water) is recorded as 100-2000 nm. Moreover, the “size of conjugate monomers” value in series [3] (dynamic equilibrium in water) is listed as ~3 nm. In series [3] (initially, when dissolved in water), the “diameters of individual molecules” value is given as 3-4 nm. Further, the “fraction of surviving cells” value in the series on HepG2 cells [4] (HepG2, 100 μM 2 hours before irradiation) is “increased the fraction of surviving cells”. The “dose enhancement factor (DEF) at 20% surviving fraction” value with HepG2 cells [4] (HepG2, 100 μM 2 hours, 0-6 Gy 230 MeV proton) came to 0.88±0.01.

The values are drawn from patent US20240189263A1, “DERIVATIZED C60 MOLECULES AND METHODS AND MATERIALS FOR USING DERIVATIZED C60 MOLECULES TO REDUCE RADIATION INJURY” (Mayo Foundation for Medical Education and Research, priority 2021, published 2024).
